Our source for the IC50 values is patent publication US10124004B2, “Pyrido[3,4-d]pyrimidine derivative and pharmaceutically acceptable salt thereof” (Teijin Pharma Limited, priority 2015, dated 2018).

Each structure is given as a SMILES string. Some results are limits rather than exact numbers.

One test addresses T1, CDK2/cyclin A2 (Homo sapiens, UniProt P24941).
T1 construct: purchased Carna Biosciences, Inc. QS S Assist CDK2/Cyclin A2_FP Kit
As to the kind of experiment: Human CDK2/cyclin A2 inhibitory activity (QS S Assist CDK2/Cyclin A2_FP Kit, IMAP fluorescence polarization). The format is biochemical. Particulars: Human CDK2/cyclin A2 inhibitory activity; read-out: CDK2 Activity symbol. In outline: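 Kinase activity read as fluorescence polarization (485/535 nm) after phosphorylated fluorescent substrate binds IMAP reagent (30 min, RT, dark). Enzyme (2.5 ng/well) reacted 60 min at RT with ATP/substrate/metal in HEPES pH 7.4 buffer with Tween 20 and DTT; no-enzyme wells define 0% activity; IC50 by curve fit.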
(In fluorescence polarisation assays a small probe gives low polarisation when free and higher when bound to something large.)

For the next test, the target named is T2, CDK4/cyclin D3 (Homo sapiens, UniProt P11802).
T2 construct: purchased Carna Biosciences, Inc. QS S Assist CDK4/Cyclin D3_FP Kit
As to the kind of experiment: Human CDK4/cyclin D3 inhibitory activity (QS S Assist CDK4/Cyclin D3_FP Kit, IMAP fluorescence polarization). The format is biochemical. Particulars: Human CDK4/cyclin D3 inhibitory activity; read-out: CDK4 Activity symbol. In outline:
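Percent inhibition, relative to DMSO with and without enzyme, was curve-fitted to give IC50 from polarization (ex 485, em 535 nm). The 45-min room-temperature reaction used 12.5-25 ng/well enzyme, kit ATP/substrate/metal mix, and HEPES pH 7.4 buffer with Tween20 and DTT, followed by 30-min IMAP binding in the dark.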

T2 sequence (P11802 whole entry): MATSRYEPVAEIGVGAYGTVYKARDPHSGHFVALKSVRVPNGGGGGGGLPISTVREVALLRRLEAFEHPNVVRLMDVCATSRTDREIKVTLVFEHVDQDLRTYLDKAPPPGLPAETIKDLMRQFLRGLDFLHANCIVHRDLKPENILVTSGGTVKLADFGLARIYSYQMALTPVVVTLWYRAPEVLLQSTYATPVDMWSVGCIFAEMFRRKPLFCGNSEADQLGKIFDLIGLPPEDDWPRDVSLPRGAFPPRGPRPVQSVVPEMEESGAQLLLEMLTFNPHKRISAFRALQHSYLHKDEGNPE
T2 sequence (P30281 whole entry partner): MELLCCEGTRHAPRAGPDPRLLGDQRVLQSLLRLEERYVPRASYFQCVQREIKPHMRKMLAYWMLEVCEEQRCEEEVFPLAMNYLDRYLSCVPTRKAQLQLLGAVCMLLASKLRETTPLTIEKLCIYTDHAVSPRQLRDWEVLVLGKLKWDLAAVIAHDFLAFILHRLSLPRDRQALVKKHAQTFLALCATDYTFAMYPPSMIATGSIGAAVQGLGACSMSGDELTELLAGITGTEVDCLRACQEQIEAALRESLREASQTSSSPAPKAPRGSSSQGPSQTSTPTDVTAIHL

With `CO[C@H](C)c1cc2cnc(Nc3ccc(N4CC[C@H](O)CC4=O)cn3)nc2c(NC(C)C)n1` [Compound 267], the IC50 was at least 100 nM at CDK2/cyclin A2 and below 10 nM at CDK4/cyclin D3.
With `COCC(C)(C)Nc1nc([C@@H](C)O)cc2cnc(Nc3ccc(N4CC[C@H](O)CC4=O)cn3)nc12` [Compound 268], the IC50 was at least 100 nM on CDK2/cyclin A2 and 10 to 100 nM on CDK4/cyclin D3.
Consider `CC(C)Oc1nc(C(C)O)cc2cnc(Nc3ccc(N4CCNCC4)nn3)nc12` (stereo not drawn) [Compound 269], for which the results for the IC50 on CDK2/cyclin A2 and at CDK4/cyclin D3 were at least 100 nM and below 10 nM, respectively.
For `CO[C@H](C)c1cc2cnc(Nc3ccc(CN4CC[C@@H](O)C4)cn3)nc2c(NC(C)C)n1` [Compound 270] the same measures were at least 100 nM and below 10 nM.
For `CO[C@H](C)c1cc2cnc(Nc3ccc(CN4CC[C@@H](F)C4)cn3)nc2c(NC(C)C)n1` [Compound 271] the same measures were at least 100 nM and below 10 nM.
For `CO[C@H](C)c1cc2cnc(Nc3ccc(CN4CC5CC(C4)O5)cn3)nc2c(NC(C)C)n1` [Compound 272] the same measures were at least 100 nM and below 10 nM.
Take `CO[C@H](C)c1cc2cnc(Nc3ccc(CN4CCCOCC4)cn3)nc2c(NC(C)C)n1` [Compound 273]: the IC50 at CDK2/cyclin A2 was at least 100 nM; on CDK4/cyclin D3, below 10 nM.
For `COC1CCN(Cc2ccc(Nc3ncc4cc([C@@H](C)OC)nc(NC(C)C)c4n3)nc2)CC1` [Compound 274] the same measures were at least 100 nM and below 10 nM.
For `CO[C@H](C)c1cc2cnc(Nc3ccc(CN4CCn5ccnc5C4)cn3)nc2c(NC(C)C)n1` [Compound 275] the same measures were at least 100 nM and 10 to 100 nM.
For the molecule `CO[C@H](C)c1cc2cnc(Nc3ccc(CN4CCN(CCF)CC4)cn3)nc2c(NC(C)C)n1` [Compound 276], the results for the IC50 at CDK2/cyclin A2 and on CDK4/cyclin D3 were at least 100 nM and below 10 nM, respectively.
As for `CO[C@H](C)c1cc2cnc(Nc3ccc(CN4CCc5nc(C)[nH]c5C4)cn3)nc2c(NC(C)C)n1` [Compound 277], the IC50 at CDK2/cyclin A2 and on CDK4/cyclin D3 was at least 100 nM in each case.
Turning to `CNC(=O)C1CCN(Cc2ccc(Nc3ncc4cc([C@@H](C)OC)nc(NC(C)C)c4n3)nc2)CC1` [Compound 278], the IC50 is at least 100 nM at CDK2/cyclin A2 and below 10 nM at CDK4/cyclin D3.
As to `CO[C@H](C)c1cc2cnc(Nc3ccc(CN4CCOCC4(C)C)cn3)nc2c(NC(C)C)n1` [Compound 279], the IC50 at CDK2/cyclin A2 was at least 100 nM; at CDK4/cyclin D3 it was 10 to 100 nM.
For `CO[C@H](C)c1cc2cnc(Nc3ccc(CN4[C@@H](C)COC[C@@H]4C)cn3)nc2c(NC(C)C)n1` [Compound 280] the same measures were at least 100 nM and at least 100 nM.
With `CO[C@H](C)c1cc2cnc(Nc3ccc(CN4CCN(CC(F)F)CC4)cn3)nc2c(NC(C)C)n1` [Compound 281], the IC50 at CDK2/cyclin A2 was at least 100 nM; on CDK4/cyclin D3 it was 10 to 100 nM.
For `CO[C@H](C)c1cc2cnc(Nc3ccc(OCCN4CCOCC4)cn3)nc2c(NC(C)C)n1` [Compound 282] the same measures were at least 100 nM and below 10 nM.
For `CO[C@H](C)c1cc2cnc(Nc3ccc(OCCCN(C)C)cn3)nc2c(NC(C)C)n1` [Compound 283], the IC50 on CDK2/cyclin A2 was at least 100 nM; on CDK4/cyclin D3, below 10 nM.
With `C[C@@H](O)c1cc2cnc(Nc3ccc(N4CCNCC4)nn3)nc2c(NCC2CCOC2)n1` (stereo partly drawn) [Compound 284], the IC50 at CDK2/cyclin A2 was at least 100 nM; at CDK4/cyclin D3 it was below 10 nM.
For `CO[C@H](C)c1cc2cnc(Nc3ccc(N4CCNCC4)nn3)nc2c(NC2CCOCC2)n1` [Compound 285] the same measures were at least 100 nM and below 10 nM.
In the case of `CO[C@H](C)c1cc2cnc(Nc3ccc(N4CCCC(O)C4)nn3)nc2c(NC(C)C)n1` (stereo partly drawn) [Compound 286], the IC50 was at least 100 nM at CDK2/cyclin A2 and below 10 nM on CDK4/cyclin D3.
Turning to `CO[C@H](C)c1cc2cnc(Nc3ccc(OCCN4CCCC4)cn3)nc2c(NC(C)C)n1` [Compound 287], the results for the IC50 on CDK2/cyclin A2 and on CDK4/cyclin D3 were at least 100 nM and below 10 nM, respectively.
For `CNCCOc1ccc(Nc2ncc3cc([C@@H](C)OC)nc(NC(C)C)c3n2)nc1` [Compound 288] the same measures were at least 100 nM and below 10 nM.
For `CO[C@H](C)c1cc2cnc(Nc3ccc(OC4CCNCC4)cn3)nc2c(NC(C)C)n1` [Compound 289] the same measures were at least 100 nM and below 10 nM.
For `CO[C@H](C)c1cc2cnc(Nc3ccc(OC4CCNC4)cn3)nc2c(NC(C)C)n1` (stereo partly drawn) [Compound 290] the same measures were at least 100 nM and below 10 nM.
As to `CO[C@H](C)c1cc2cnc(Nc3ccc(CN4CCNCC4)cn3)nc2c(NC2CCOCC2)n1` [Compound 291], the IC50 at CDK2/cyclin A2 is at least 100 nM; at CDK4/cyclin D3, below 10 nM.
In the case of `COCC(C)(C)Nc1nc([C@@H](C)O)cc2cnc(Nc3ccc(CN4CC[C@@H](F)C4)cn3)nc12` [Compound 292], the IC50 was at least 100 nM on CDK2/cyclin A2 and 10 to 100 nM on CDK4/cyclin D3.
As to `COCC(C)(C)Nc1nc([C@@H](C)O)cc2cnc(Nc3ccc(CN4CCCOCC4)cn3)nc12` [Compound 293], the values for the IC50 at CDK2/cyclin A2 and at CDK4/cyclin D3 were at least 100 nM and below 10 nM, respectively.
Regarding `COCC(C)(C)Nc1nc([C@@H](C)O)cc2cnc(Nc3ccc(CN4CCC(OC)CC4)cn3)nc12` [Compound 294], the IC50 on CDK2/cyclin A2 is at least 100 nM; at CDK4/cyclin D3 it was below 10 nM.
For `COCC(C)(C)Nc1nc([C@@H](C)O)cc2cnc(Nc3ccc(CN4CCn5ccnc5C4)cn3)nc12` [Compound 295] the same measures were at least 100 nM and 10 to 100 nM.
Turning to `COCC(C)(C)Nc1nc([C@@H](C)O)cc2cnc(Nc3ccc(CN4CCc5nc(C)[nH]c5C4)cn3)nc12` [Compound 296], the IC50 on CDK2/cyclin A2 and on CDK4/cyclin D3 was at least 100 nM in each case.
Regarding `CNC(=O)C1CCN(Cc2ccc(Nc3ncc4cc([C@@H](C)O)nc(NC(C)(C)COC)c4n3)nc2)CC1` [Compound 297], the IC50 is at least 100 nM at CDK2/cyclin A2 and below 10 nM at CDK4/cyclin D3.
For `COCC(C)(C)Nc1nc([C@@H](C)O)cc2cnc(Nc3ccc(CN4CCOCC4(C)C)cn3)nc12` [Compound 298] the same measures were at least 100 nM and 10 to 100 nM.
For `COCC(C)(C)Nc1nc([C@@H](C)O)cc2cnc(Nc3ccc(CN4CCN(CC(F)F)CC4)cn3)nc12` [Compound 299] the same measures were at least 100 nM and 10 to 100 nM.
As to `CO[C@H](C)c1cc2cnc(Nc3ccc(CN4CCNCC4)cn3)nc2c(N[C@@H]2CCCOC2)n1` [Compound 301], the IC50 on CDK2/cyclin A2 is at least 100 nM; at CDK4/cyclin D3, below 10 nM.
On to `CO[C@H](C)c1cc2cnc(Nc3ccc(CN4CCNCC4)cn3)nc2c(N[C@@H]2CCOC2)n1` [Compound 303], for which the IC50 is at least 100 nM on CDK2/cyclin A2 and below 10 nM at CDK4/cyclin D3.
For `CO[C@H](C)c1cc2cnc(Nc3ccc(N4CCNCC4)nn3)nc2c(N[C@@H]2CCCOC2)n1` [Compound 305] the same measures were at least 100 nM and below 10 nM.
For `CO[C@H](C)c1cc2cnc(Nc3ccc(N4CCNCC4)nn3)nc2c(N[C@H]2CCOC2)n1` [Compound 306] the same measures were at least 100 nM and 10 to 100 nM.
For `CO[C@H](C)c1cc2cnc(Nc3ccc(N4CCNCC4)nn3)nc2c(N[C@@H]2CCOC2)n1` [Compound 307] the same measures were at least 100 nM and below 10 nM.
Turning to `C[C@@H](O)c1cc2cnc(Nc3ccc(N4CCNCC4)nn3)nc2c(NC2CCCCC2C(=O)O)n1` (stereo partly drawn) [Compound 308], the IC50 on CDK2/cyclin A2 and at CDK4/cyclin D3 was at least 100 nM in each case.
